According to patent publication US9464064B2, “HCV helicase inhibitors and methods of use thereof” (University of Kansas, priority 2011, dated 2016):

Biological target: T1, HCV NS3 helicase NS3h_1b(con1) (Hepatitis C virus genotype 1b, UniProt Q9WMX2)
T1 construct: truncated C-terminally His-tagged NS3 proteins lacking the N-terminal protease, called NS3h; His-tag (C); made in house
Assay: MBHA screen of NCI mechanistic set library at 20 μM (percent inhibition, compound interference)
Type: biochemical
Settings: compounds at 20 μM; for Inh. (%) (Inhibition): calculated from Equation 1
Summary of the method: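 Molecular beacon-based DNA unwinding assay; compounds screened at 20 μM in triplicate, with DMSO-only negative and 500 nM dT20 positive controls. Fluorescence (ex 643/em 670 nm) was read before and 30 min after adding ATP to 1 mM. Percent inhibition came from the change relative to DMSO controls; interference from pre-ATP fluorescence versus DMSO controls.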

[1] = assay interference calculated with Equation 2 (fluorescence vs DMSO-only controls before ATP)
[2] = MBHA with DNA substrate, assay interference calculated with Equation 2

T1 sequence (Q9WMX2 1192-1657): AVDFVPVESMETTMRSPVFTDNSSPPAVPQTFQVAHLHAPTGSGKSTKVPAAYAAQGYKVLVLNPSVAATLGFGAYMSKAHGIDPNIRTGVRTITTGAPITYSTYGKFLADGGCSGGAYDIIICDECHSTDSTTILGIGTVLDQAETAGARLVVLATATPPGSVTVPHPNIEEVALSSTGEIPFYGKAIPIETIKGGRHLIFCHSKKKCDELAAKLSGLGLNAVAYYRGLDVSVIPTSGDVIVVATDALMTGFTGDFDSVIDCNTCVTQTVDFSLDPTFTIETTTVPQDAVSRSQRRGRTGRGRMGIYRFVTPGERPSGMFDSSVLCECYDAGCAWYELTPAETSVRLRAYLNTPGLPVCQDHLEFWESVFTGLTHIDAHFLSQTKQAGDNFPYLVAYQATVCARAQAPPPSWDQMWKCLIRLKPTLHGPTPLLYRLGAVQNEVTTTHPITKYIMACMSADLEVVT

Row | SMILES | Inh. (%) (Inhibition) (MBHA with a DNA substrate) | Int.* (Ratio) (Interference) [1] | Int.* (Ratio) (Interference) [2] | Inh. (%) (Inhibition) (MBHA with DNA substrate)
1 | CC1(C)N=C(N)N=C(N)N1c1ccc(CCCCc2ccc(Cl)cc2Cl)cc1 [Compound 104129] | −42.7% | 0.92 Ratio | – | –
2 | CCP(CC)CC.[Au+].[Cl-] [Compound 313981] | −3.8% | 0.93 Ratio | – | –
3 | CC[C@@]1(O)C[C@H](O[C@H]2C[C@H](N(C)C)[C@H](O)[C@H](C)O2)c2c(cc3c(c2O)C(=O)c2c(O)ccc(O)c2C3=O)[C@H]1C(=O)OC [Compound 267229] | – | – | 0.49 Ratio | 31.5%
4 | CC(C)C(=O)OCN(C)c1nc(N(C)COC(=O)C(C)C)nc(N(C)COC(=O)C(C)C)n1 [Compound 626551] | −24.9% | 0.90 Ratio | – | –
5 | CC(C)=CCC(OC(=O)C=C(C)C)C1=CC(=O)c2c(O)ccc(O)c2C1=O (stereo not drawn) [Compound 140377] | 9.4% | 0.93 Ratio | – | –
6 | O=C([O][Hg][CH2]C1COC([CH2][Hg][O]C(=O)c2ccccc2)CO1)c1ccccc1 (stereo not drawn) [Compound 30916] | – | – | 0.93 Ratio | 19.0%
7 | Cc1ccccc1OCC(COC(=O)Nc1ccccc1)OC(=O)Nc1ccccc1 (stereo not drawn) [Compound 635824] | – | – | 0.91 Ratio | 13.5%
8 | N#CC(=S)Nc1ccc(Cl)c(Cl)c1 [Compound 379531] | 11.6% | 0.89 Ratio | – | –
9 | O=C1Nc2ccc(Br)cc2/C1=C\C(=O)c1ccccc1 [Compound 294961] | −28.1% | 1.06 Ratio | – | –
10 | COc1cc(C2c3cc4c(cc3C(O)C3COC(=O)C23)OCO4)cc(OC)c1OC (stereo not drawn) [Compound 24818] | – | – | 1.07 Ratio | −2.7%
11 | O=c1[nH]c(=O)n(C2OC(CO)C(O)C2O)cc1F (stereo not drawn) [Compound 146604] | – | – | 1.12 Ratio | 6.1%
12 | CC1=C2C(=CC(C)(C)[C@@H]2O)C(=O)[C@](C)(O)C12CC2 [Compound 400978] | – | – | 1.10 Ratio | 17.9%

The next lines start with the values.

Row | Inh. (%) (Inhibition) (MBHA with a DNA substrate) | Int.* (Ratio) (Interference) [1] | Int.* (Ratio) (Interference) [2] | Inh. (%) (Inhibition) (MBHA with DNA substrate) | SMILES
13 | – | – | 1.01 Ratio | −12.6% | CC(C)(C)[Si](C)(C)OCC1CCC(n2cnc3c(N)ncnc32)O1 (stereo not drawn) [Compound 616355]
14 | – | – | 1.14 Ratio | −18.3% | CCOC(=O)Nc1nc2ccc(Cn3cccc3)cc2[nH]1 [Compound 639754]
15 | −6.3% | 1.05 Ratio | – | – | Cc1cccc(Cl)c1NC(=O)/C=C/c1ccccc1 [Compound 191393]
16 | – | – | 0.92 Ratio | 14.5% | C/C(NNC(=O)c1ccccc1O)=C1\C=Nc2ccccc2S1 [Compound 635121]
17 | – | – | 0.90 Ratio | −0.3% | C=C(NC(=O)C(=C)NC(=O)c1csc(C2=N[C@@H]3c4csc(n4)C4NC(=O)c5csc(n5)C([C@](C)(O)[C@@H](C)O)NC(=O)[C@H]5CSC(=N5)/C(=C/C)NC(=O)C(C(C)O)NC(=O)c5csc(n5)C3(CC2)NC(=O)[C@H](C)NC(=O)C(=C)NC(=O)C(=C)NC(=O)C(C(C)C)N[C@@H]2C=Cc3c([C@@H](C)O)cc(nc3[C@H]2O)C(=O)OC4C)n1)C(N)=O (stereo partly drawn) [Compound 285116]
18 | – | – | 1.08 Ratio | 1.0% | C[C@H](CSC(=O)c1ccccc1)C(=O)N1c2ccccc2C[C@H]1C(=O)O [Compound 604535]
19 | – | – | 0.46 Ratio | −8.9% | C[n+]1ccc(Nc2ccc(NC(=O)c3ccc(Nc4cc[n+](C)c5ccc([N+](=O)[O-])cc45)cc3[N+](=O)[O-])cc2)cc1.Cl [Compound 218439]
20 | – | – | 1.00 Ratio | −14.2% | CCCCCCCCCc1c(Cl)nc(Cl)nc1Cl [Compound 92510]
21 | – | – | 1.05 Ratio | 25.5% | CN1CCN(CCSC2Cc3cc(Cl)ccc3Sc3ccccc32)CC1 (stereo not drawn) [Compound 635366]
